# According to patent US4500544A, “Ascochlorin derivatives, and pharmaceutical composition containing the same” (Chugai Seiyaku Kabushiki Kaisha, priority 1981, dated 1985):
# Assay: serum lipid and glucose in normal mice fed the compounds (Example 25)
# Type: in vivo, ddY male mice
# Settings: for free fatty acid in serum / neutral fat in serum / total cholesterol in serum / serum glucose / lipid level in serum (in words): 0.05% in diet, one week; for free fatty acid in serum / neutral fat in serum / total cholesterol in serum / serum glucose: n=8; for free fatty acid in serum: control 25.3 ± 1.62; for neutral fat in serum: control 134.7 ± 8.6; for total cholesterol in serum: control 135.9 ± 4.8; for serum glucose: control 293.0 ± 13.3; for free fatty acid in serum, change / neutral fat in serum, change / serum glucose, change / total cholesterol in serum, change: vs control
# Experimental: Five-week-old ddY male mice were given for one week a diet (CE-2 from Nippon Crea Co., Ltd.) containing 0.05% of the compounds of the present invention indicated in Table 7. On the 7th day, the mice were sacrificed and the levels of lipid and glucose in their serum were measured.
Compound,free fatty acid in serum,neutral fat in serum,total cholesterol in serum,serum glucose,"free fatty acid in serum, change","neutral fat in serum, change","serum glucose, change","total cholesterol in serum, change",lipid level in serum (in words)
"CCN(CC)C(=O)Oc1c(Cl)c(C)c(C=O)c(O)c1C/C=C(C)/C=C/C1(C)C(C)CCC(=O)C1C (stereo not shown) [Example 13, 4-O--diethylcarbamoyl ascochlorin]",26.4 ± 0.58 mg/dL,110.2 ± 16.4 mg/dL,121.2 ± 5.0 mg/dL,215.2 ± 5.7 mg/dL,+4.3%,-18.2%,-26.6%,-10.8%,–
"CC(/C=C/C1(C)C(C)CCC(=O)C1C)=C\Cc1c(O)c(C=O)c(C)c(Cl)c1OC(=O)COc1ccc(Cl)cc1 (stereo not shown) [Example 14, 4-O-(p-chlorophenoxy)acetyl ascochlorin]",24.9 ± 0.48 mg/dL,99.4 ± 9.4 mg/dL,115.6 ± 9.8 mg/dL,209 ± 8.9 mg/dL,-1.6%,-26.2%,-28.7%,-14.8%,could also reduce the lipid level in serum
"COc1ccc(C(=O)Oc2c(Cl)c(C)c(C=O)c(O)c2C/C=C(C)/C=C/C2(C)C(C)CCC(=O)C2C)cc1 (stereo not shown) [Example 15, 4-O--(p-methoxybenzoyl) ascochlorin]",25.2 ± 1.89 mg/dL,141.4 ± 21.3 mg/dL,137.9 ± 4.1 mg/dL,199.3 ± 8.6 mg/dL,-0.4%,+4.9%,-31.9%,+1.4%,–
"COC(=O)c1ccc(C(=O)Oc2c(Cl)c(C)c(C=O)c(O)c2C/C=C(C)/C=C/C2(C)C(C)CCC(=O)C2C)cc1 (stereo not shown) [Example 16, 4-O--(p-methoxycarbonyl)-benzoyl ascochlorin]",21.8 ± 0.69 mg/dL,136.3 ± 8.1 mg/dL,129.6 ± 3.9 mg/dL,229.9 ± 17.0 mg/dL,-15.9%,+1.2%,-21.5%,-4.6%,–
"CC(/C=C/C1(C)C(C)CCC(=O)C1C)=C\Cc1c(O)c(C=O)c(C)c(Cl)c1OC(=O)c1ccncc1 (stereo not shown) [Example 17, 4-O-isonicotinoyl ascochlorin]",20.3 ± 0.77 mg/dL,116.1 ± 13.8 mg/dL,113.5 ± 7.8 mg/dL,191.6 ± 13.2 mg/dL,-19.8%,–,-34.6%,-16.5%,could also reduce the lipid level in serum
"CC(/C=C/C1(C)C(C)CCC(=O)C1C)=C\Cc1c(O)c(C=O)c(C)c(Cl)c1OC(=O)c1ccccn1 (stereo not shown) [Example 18, 4-O--picolinyl ascochlorin]",23.5 ± 3.13 mg/dL,117.6 ± 6.8 mg/dL,138.4 ± 3.1 mg/dL,247.7 ± 9.0 mg/dL,-7.1%,-12.7%,-15.5%,+1.8%,–
